In brackets after ≈: the same amount, converted by molar mass. Residues, ends and D or L forms follow the SMILES beside them. No end group written: not given here.
What was measured:
erythrocytes [1] = experiment: Morphological observation of isolated erythrocytes (aggregation); assay type: cell-based, human
Method: Pept_3 stood out from the other four CAMPs in that it not only lysed, but also aggregated cells. An erythrocyte aggregate formed is illustrated by Figure 2. Samples for morphological observation of erythrocytes were the same as those for hemolysis assay. After incubation at 37 °C for 0.5 h, the samples were processed to fix with glutaraldehyde for qualitative morphological evaluation with light microscopy. A glutaraldehyde fixation method was applied for isolated cells to prevent damage that can occur during preparing smears, which are good for cells in blood.
Samples for morphological observation of erythrocytes were the same as those for hemolysis assay. After incubation at 37 °C for 0.5 h, the samples were centrifuged at 100× g for 5 min, following which the supernatant was removed and the cells fixed by resuspending them in 0.5 mL of 1% glutaraldehyde solution in PBS. Then, erythrocytes were left for 3 h at room temperature, with regular mixing. The fixed cells were stored at 4 °C until use. The supernatant over settled cells was withdrawn, and a cell aliquot was placed in a small workspace cut in the piece of scotch tape put on a microscope slide. Images were examined using a Motic B light microscope (Motic, Xiamen, China).

[2] = system: blood plasma coagulation (intrinsic and final common pathways); experiment: Plasma coagulation assay, activated partial thromboplastin time (APTT); set-up: species or system human; conditions: for APTT prolongation versus control: 15 min pre-incubation at room temperature; for APTT change from the control value: 25, 50, 100 μM peptide in plasma
Method: (§1) Plasma samples (50 μL) were incubated for 15 min at room temperature with 0, 25, 50 or 100 μM CAMP, and then the coagulation assay steps were carried out according the manufacturer’s instructions.
(§2) The plasma coagulation tests were performed using an APG4-03-Pkh hemostasis analyzer (EMCO Llc, Moscow, Russia) and MLT-APTT and MLT-THROMBOPLASTIN reagent kits (MLT Llc, Moscow, Russia) according to the manufacturer’s instructions. Testing was performed on Plasma N (normal), a mixed pool of citrate anticoagulated plasma obtained from healthy donors, manufactured by RENAM Rpd, Moscow, Russia. Fifty microliter plasma samples supplemented with CAMPs at different concentrations (or with PBS as control) were pre-incubated at room temperature for 15 min. Afterward, in case of measuring activated partial thromboplastin time (APTT), 50 μL of APTT Reagent were added. The samples were warmed at 37 °C for 3 min, and 50 μL of Calcium Chloride Solution were added to initiate fibrin clot formation. For measuring prothrombin time (PT), pre-incubated plasma samples were warmed at 37 °C for 1 min, and fibrin clot formation was triggered by adding 100 μL of Thromboplastin Reagent.

[3] = system: neutrophils in whole blood; experiment: Neutrophil extracellular trap (NET) assay in whole blood; assay type: cell-based, human; conditions: for NET concentration versus control blood: 100 μM peptide, ex vivo blood, 3 h, 37 °C, no PMA
Method: EDTA-anticoagulated capillary blood was obtained via a finger prick. Blood aliquots of 20 μL were placed in 1.5 mL Eppendorf tubes and mixed with 2 μL of a CAMP solution (or 2 μL of PBS in controls). The samples were incubated for 3 h. After the first 1 h, PMA (100 nM final concentration) was added to a part of them, and incubation continued for a further 2 h. Cell settling was prevented by continuous gentle turning the tubes up and down using a Multi Bio RS-24 rotator (Biosan, Riga, Latvia). The blood was retained at the tube bottom by surface tension.
NET counts were performed using standardized blood smears stained by Romanowsky method. The smears were examined using a Motic B microscope (Motic, Xiamen, China). Quantitative assessment of NETs was performed as described previously. NETs among 300–500 leukocytes were counted in the middle third part of the smear, and the NETs-to-leukocyte percentage ratio was calculated. Based on counting results, the number of NETs in 1 μL of blood was calculated. In each experiment, two parallel samples were prepared and three parallel smears were taken from each at each observation point.

isolated neutrophils = experiment: Luminol-dependent chemiluminescence, neutrophil respiratory burst; assay type: cell-based, human; conditions: for Neutrophil respiratory burst (luminol-dependent chemiluminescence) in response to peptide-pretreated plasma: final peptide 5 μM or 20 μM, final plasma dilution 1:50, 37 °C
Method: Neutrophils and plasma were obtained from the same person. Plasma diluted five times in complete Krebs–Ringer buffer solution was treated with 50 μM or 200 μM CAMP, with plasma dilution and CAMP concentrations being the same as in the samples for hemolysis assay. The final plasma content in samples for CL measurement was restricted to no higher than 2%, since plasma constituents can inhibit luminol-dependent CL due to the scavenging effect. Following the addition of luminol to neutrophils, light emission recording was started. Spontaneous cell activation, if it occurred, was allowed to complete, and then the CAMP-containing plasma or control plasma was added (Figure 6), yielding a final plasma dilution of 1:50 and a final CAMP concentration of 5 μM or 20 μM. […] The effect was dose-dependent (Figure 6).
Chemiluminescence study was conducted at 37 °C with a Lum-1200 chemiluminometer (DISoft Llc, Moscow, Russia) measuring the intensity of emitted light in volts. Assays were performed with the following components in a total volume of 500 μL:435 μL of neutrophil suspension (final, 0.5 × 10^6 cells/mL) in complete Krebs–Ringer buffer solution, 10 μL of luminol (final, 200 μM), 50 μL of five-fold diluted (in the above buffer solution) autologous plasma containing or not containing CAMP at a desired concentration, 5 μL of PMA (final, 160 nM).
Neutrophils were placed in chemiluminometer cuvettes and equilibrated at 37 °C in the cuvette holder, after which luminol was added to each sample and the light emission was continuously recorded. In desired time intervals, plasma mixed with CAMP (or control plasma) and then PMA were added.

Escherichia coli = conditions: cited from earlier work
Source text: Table 1 Cationic antimicrobial peptides (CAMPs) used in this study and their characteristics. | column: MIC, μM (E. coli)

[4] = system: blood plasma coagulation (extrinsic and common pathways); experiment: Plasma coagulation assay, prothrombin time (PT); set-up: species or system human; conditions: for PT increase compared to control: 15 min pre-incubation at room temperature; for Effect on PT: 25, 50, 100 μM peptide in plasma
Method: as §1, §2

neutrophils = experiment: LDH release cytolysis assay, neutrophils; conditions: 50 μM peptide, PBS, 0.5 h, 37 °C; Lysis solution = 100%
Method: (§3) The disruptive effect of peptides on the plasma membrane of mononuclear cells and neutrophils was evaluated by the leakage of lactate dehydrogenase (LDH) from damaged cells. Experiments were run in PBS as a medium without calcium and magnesium ions, not to favor neutrophil and monocyte activation.
(§4) Aliquots of cell suspension without or with CAMPs at different concentrations were incubated at 37 °C for 0.5 h. Then, the assay steps were carried out. In each experiment, there were both mononuclear cells and neutrophils from the same healthy subject.
(§5) The cytolytic activity of CAMPs against mononuclear cells and neutrophils was determined using a lactate dehydrogenase (LDH) assay measuring LDH released upon cell lysis. Working cell suspensions in PBS supplemented with […] glucose were adjusted to an optical density of 0.12 at 800 nm, which corresponded to a cell density of about 600 × 10^3 cells/mL. LDH assay was performed using a Cytotoxicity Detection Kit^PLUS (LDH) (Roche Diagnostics, Mannheim, Germany) according to the manufacturer’s protocol. Then, 50 μL aliquots of CAMP solutions of different concentrations were placed in the wells of a microplate. The medium used for preparing CAMP solutions and the kit’s Lysis solution served for negative and positive controls, respectively. […]

mononuclear cells = experiment: LDH release cytolysis assay, mononuclear cells; conditions: 50 μM peptide, PBS, 0.5 h, 37 °C; Lysis solution = 100%
Method: as §3, §4, §5

erythrocytes [5] = experiment: Hemolysis assay in the presence of autologous plasma; assay type: cell-based, human
Method: The interaction with blood plasma constituents is known to play an important role in the pharmacokinetics and effectiveness of therapeutic agents. For CAMPs, the binding in plasma could decrease their effective concentration at the site of action and, thereby, their antimicrobial activity. To elucidate whether CAMP interaction with cells is affected by plasma, presumably through CAMP binding, we performed the hemolysis assay. The erythrocyte suspension was added to the same volume of PBS containing CAMP at two times the final concentration or PBS containing both CAMP and 20% autologous plasma. Calculations for extracellular hemoglobin were made based on the negative and positive control samples containing or not containing plasma.
The hemolytic activity of CAMPs was determined using a hemolysis assay measuring hemoglobin released from damaged cells. […] The supernatant (200 μL) was transferred to the wells of a microplate, and the absorbance of hemoglobin was measured by a Thermo Electron Multiskan Ascent microplate reader (Thermo Fisher Scientific Inc., Waltham, MA, USA), with a test wavelength of 414 nm as well as 540 nm and a background wavelength of 690 nm. The hemolysis percentage was calculated using the following equation: Hemolysis (%) = {(sample absorbance − negative control)/(positive control − negative control)} × 100.

Row | Molecule | NET concentration versus control blood [3] | Neutrophil respiratory burst (luminol-dependent chemiluminescence) in response to peptide-pretreated plasma (isolated neutrophils) | MIC (E. coli) (Escherichia coli) | APTT change from the control value [2] | Effect on PT [4] | other results
1 | CC(C)C[C@H](NC(=O)[C@H](Cc1ccccc1)NC(=O)[C@H](CS)NC(=O)[C@@H](NC(=O)[C@H](CC(C)C)NC(=O)[C@H](CCCNC(=N)N)NC(=O)[C@H](Cc1c[nH]c2ccccc12)NC(=O)[C@@H](N)CCCNC(=N)N)C(C)C)C(=O)N[C@@H](CS)C(=O)N[C@@H](CCCNC(=N)N)C(=O)N[C@@H](CCCNC(=N)N)C(=O)N[C@@H](CCCCN)C(=O)N[C@@H](CCCCN)C(=O)N[C@H](C(N)=O)C(C)C [pept_3] (H-RWRLVCFLCRRKKV-NH2; N-terminus and C-terminus assumed) | No significant difference | CL increase, though relatively low | 17 µM (≈ 31.7 µg/mL) | – | – | Erythrocyte aggregation (erythrocytes [1]; 50 μM peptide in PBS, 0.5 h, 37 °C, glutaraldehyde fixation, light microscopy): induces erythrocyte aggregation; Erythrocyte aggregation, peptide preincubated with plasma (erythrocytes [1]; peptide preincubated with plasma): no cell aggregation was observed; APTT prolongation versus control ([2]; 100 μM peptide in plasma): ~390%; PT increase compared to control ([4]; 25 μM peptide in plasma): about 165%; PT increase compared to control ([4]; 50 μM peptide in plasma): 320%; PT increase compared to control ([4]; 100 μM peptide in plasma): ~780%
2 | CCCCCCCCCCCCCC(=O)O[C@@H]1[C@@H](C)[C@@]2(O)[C@@H](C=C(CO)C[C@]3(O)C(=O)C(C)=C[C@@H]23)[C@@H]2C(C)(C)[C@]12OC(C)=O [PMA, phorbol-12-myristate-13-acetate, reference compound] | – | – | – | – | – | Neutrophil activation in whole blood (morphology) ([3]; 100 nM, with or without CAMPs): resulted in neutrophil activation; ROS production by neutrophils (luminol-dependent chemiluminescence) (isolated neutrophils; PMA added after CAMP-containing plasma, final 160 nM): induced a high ROS production
3 | FLIGKAIKRKFCLRSVWNA [pept_7, synthetic short cationic antimicrobial peptide designed by bioinformatic analysis of the medicinal leech genome and microbiome] | – | – | 14.3 µM | did not cause significant changes | did not cause significant changes | –
4 | RLKRFKRVALRREKTARNFRSIVS [pept_6, synthetic short cationic antimicrobial peptide designed by bioinformatic analysis of the medicinal leech genome and microbiome] | – | – | >100 µM | – | no significant effect | APTT increase over the control value ([2]; 25 μM peptide in plasma): 1.3 fold; APTT increase over the control value ([2]; 50 μM peptide in plasma): 2.1 fold; APTT increase over the control value ([2]; 100 μM peptide in plasma): 2.9 fold
5 | KFKKVIWKSFL-NH2 (C-terminus assumed) [pept_4] | No significant difference | no development of the respiratory burst | 90 µM | No significant APTT change | not significantly affected | –
6 | RAVIYKIPYNAIASRWIIAPKKC [pept_8, synthetic short cationic antimicrobial peptide designed by bioinformatic analysis of the medicinal leech genome and microbiome] | – | – | 24 µM | – | – | APTT prolongation versus control ([2]; 100 μM peptide in plasma): about 45%
7 | RPILIRVRRIRVI-NH2 (C-terminus assumed) [pept_5] | No significant difference | no development of the respiratory burst | 77 µM | No significant APTT change | not significantly affected | Lysis of neutrophils (LDH release) (neutrophils): ~15%; Lysis of mononuclear cells (LDH release) (mononuclear cells): about 20%; Effect of plasma on CAMP-induced hemolysis (erythrocytes [5]; 50 μM final peptide (100 μM mixed with five-fold diluted plasma)): complete inhibition; Effect of plasma on the hemolytic effect (erythrocytes [5]; 100 μM final peptide, autologous plasma final dilution 1:10, 0.5 h, 37 °C): completely inhibited
